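Cultured in 96-well plates, cells were exposed to test compound for 48 hours across five concentrations. TGI: total growth inhibition.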

Holding throughout (experiment): inhibition of tumour cell growth, NCI panel, 48 h
The test system of assay [1] is RXF 393 renal.
In assay [2] the test system is NCI-H522 lung.
The test system of assay [3] is OVCAR-5 ovarian.
Assay [4] concerns K-562 leukemia.
Assay [5] has as its system SF-268 CNS.
For assay [6], the system named is NCI/ADR-RES ovarian.
The subject of assay [7] is NCI-H226 lung.
The subject of assay [8] is RPMI-8226 leukemia.
Assay [9] deals with MDA-MB-435.
The test system of assay [10] is KM12 colon.
Assay [11] concerns SR leukemia.
Assay [12] has as its system HOP-62 NSCLC.
Assay [13] relates to PC-3 prostate.
The test system of assay [14] is HT29 colon.
The subject of assay [15] is MDA-MB-231 breast.
The subject of assay [16] is COLO 205 colon.
For assay [17], the system named is U251 CNS.
For assay [18], the system named is MOLT-4 leukemia.
The test system of assay [19] is HS 578T breast.
Assay [20] concerns OVCAR-4 ovarian.

Take `NS(=O)(=O)c1ccc(Nc2c3ccccc3nc3c(C(=O)NCCO)cccc23)cc1`: the TGI in [1] was 0.237 µM; in [2], 0.272 µM; in assay [3] it was 0.358 µM; in [4], 0.887 µM; in assay [5], 0.303 µM; in assay [6] it was greater than 1 µM. The TGI in assay [7] came to 0.296 µM; in assay [8] it was 0.337 µM; in assay [9] it was 0.513 µM; in assay [10] it was 0.283 µM; in assay [11] it was 0.0607 µM; in assay [12], 0.443 µM. Moreover, the TGI in [13] came to 0.432 µM; in [14], 0.302 µM; in [15] it was 0.362 µM; in assay [16], 0.206 µM; in assay [17], 0.205 µM; in [18] it was 0.0604 µM. For the same compound, the values for the TGI in assay [19] and in assay [20] were 0.79 µM and 0.454 µM, respectively.

Take `C1=NCCNCCNCCN=Cc2ccccc2OCc2cccc(n2)COc2ccccc21`: the TGI in assay [1] was greater than 100 µM; in assay [2], greater than 100 µM; in [3], greater than 100 µM; in assay [4], greater than 100 µM; in [5] it was greater than 100 µM; in assay [6], 60.4 µM. The TGI in assay [7] was greater than 100 µM; in assay [8] it was greater than 100 µM; in [9], 30 µM; in assay [10] it was greater than 100 µM; in assay [11] it was 88.9 µM; in assay [12], greater than 100 µM. Also, the TGI in assay [13] is greater than 100 µM; in assay [14] it was 51.6 µM; in assay [15] it was greater than 100 µM; in assay [16], greater than 100 µM; in assay [17], 66.3 µM; in [18], greater than 100 µM. For the same compound, the TGI in assay [19] and in [20] was greater than 100 µM each time.

Turning to `O=c1[nH]cnc2c1ncn2[C@@H]1C[C@H]1CO`, the TGI in [1], in assay [2], in [3], in assay [4], in assay [5] and in assay [6] was greater than 100 µM in each case. Also, the TGI in [7], in [8], in assay [9], in assay [10], in [11] and in assay [12] was greater than 100 µM in each case. In addition, the TGI in [13], in assay [14], in [15], in assay [16], in assay [17] and in [18] was greater than 100 µM throughout. The TGI in [19] and in assay [20] was greater than 100 µM in each case.

For the compound `Cc1ccc(NC2=N/C(=C/c3ccccc3)C(Cl)=N2)cc1`, the TGI in [1], in assay [2], in assay [3], in [4], in [5] and in assay [6] was greater than 100 µM throughout. Besides, the TGI was greater than 100 µM in assay [7]; greater than 100 µM in [8]; greater than 100 µM in [9]; greater than 100 µM in assay [10]; 98.2 µM in [11]; greater than 100 µM in [12]. The TGI in assay [13], in assay [14], in assay [15], in assay [16], in [17] and in [18] was greater than 100 µM each time. In addition, the TGI in [19] and in assay [20] was greater than 100 µM throughout.

For `Nc1nc(Nc2ccccc2)sc1C(=O)c1cccs1`, the TGI amounted to 20.2 µM in assay [1]; 25.9 µM in assay [2]; 32.1 µM in assay [3]; 55.7 µM in [4]; 46.6 µM in [5]; 82 µM in [6]. Further, the TGI was 39.7 µM in assay [7]; 37 µM in assay [8]; 29.4 µM in assay [9]; 14.9 µM in assay [10]; 11.2 µM in assay [11]; greater than 65.5 µM in [12]. The TGI worked out at 41.9 µM in assay [13]; 18.2 µM in assay [14]; 68.6 µM in assay [15]; 22.7 µM in assay [16]; 40.8 µM in assay [17]; 43.9 µM in assay [18]. Moreover, the TGI in assay [19] amounted to 43.3 µM; in [20], 40.6 µM.

For `C#CCCCOc1ncccn1`, the TGI in assay [1], in assay [2], in assay [3], in [4], in [5] and in assay [6] was greater than 100 µM each time. Besides, the TGI in [7], in assay [8], in assay [9], in [10], in [11] and in assay [12] was greater than 100 µM in each case. Besides, the TGI in assay [13], in assay [14], in [15], in assay [16], in assay [17] and in [18] was greater than 100 µM each time. Besides, the TGI in assay [19] and in assay [20] was greater than 100 µM throughout.

For the compound `CCOC(=O)C(NCc1cccc(C(F)(F)F)c1)(NC(=O)CC)C(F)(F)F` (stereo not given), the TGI in assay [1], in assay [2], in assay [3], in assay [4], in assay [5] and in [6] was greater than 100 µM in each case. Also, the TGI in assay [7], in [8], in assay [9], in assay [10], in assay [11] and in [12] was greater than 100 µM each time. In addition, the TGI in assay [13], in assay [14], in [15], in assay [16], in assay [17] and in assay [18] was greater than 100 µM in each case. Also, the TGI in assay [19] and in assay [20] was greater than 100 µM throughout.

The values above are taken from PubChem BioAssay (NCI).
